Laboratory results published in US8912125B2, “Control of trifluralin-resistant weeds with dithiopyr” (Dow AgroSciences, LLC., priority 2010, dated 2014).

Columns and labels:
[1] = test system: ryegrass biotype 1252.6 (with trifluralin resistance); experiment: Pre-emergence (simulated IBS) pot test, % survival of ryegrass biotype 1252.6; assay type: in vivo; conditions: 5 weeks after herbicide application
Procedure: (§1) Five ryegrass biotypes with varying degrees of resistance to trifluralin (1251, 1216.1, 1252.6, 1252.2 and 1145.4) and two non-resistant biotypes (SLR4 and 1261.1) were tested. Dithiopyr was applied using a simulated incorporated by sowing (IBS) system for ryegrass and wheat.
(§2) Ryegrass: A set volume of seeds (50 seeds approx) were placed onto the surface of sandy potting soil in 0.55 L polyethylene pots. Dithiopyr was sprayed directly onto the ryegrass seed soil surface at rates of 250, 500 and 1000 grams active ingredient per hectare (g ai/ha). The seed and soil were then covered with a soil mixture to a depth of 5 mm (the soil mixture included 385 L peatmoss, 615 L coarse sand, 1024 g Ag. lime, 564 g hydrated lime, and 3.7 Kg Osmocote® Exact™ (Everris International B.V.; Geldermalsen, The Netherlands) with a pH of 6.3).
(§3) Herbicide application was performed using a laboratory boom sprayer equipped with T-jet fan nozzles at a speed of 1 ms^−1. Output from the sprayer was calibrated at 110 L ha^−1 at a pressure of 250 kPa. Using this testing procedure, volatilization losses were minimized by the immediate and even incorporation of each herbicide. The experiment was established as a randomized block design with three replications and was conducted outdoors during mid winter (July-August).
(§4) Herbicide effects on wheat and ryegrass seedlings were measured 5 weeks after spraying. Seedlings were considered emerged if they had reached the 2-leaf stage at this time. Survival % was recorded by comparing the surviving number of 2-3 leaved seedlings in the sprayed treatments to the […] (Tables 1 and 2).

[2] = test system: ryegrass biotype 1145.4 (with trifluralin resistance); experiment: Pre-emergence (simulated IBS) pot test, % survival of ryegrass biotype 1145.4; assay type: in vivo; conditions: 5 weeks after herbicide application
Procedure: as §1, §2, §3, §4

[3] = test system: ryegrass biotype 1251 (with trifluralin resistance); experiment: Pre-emergence (simulated IBS) pot test, % survival of ryegrass biotype 1251; assay type: in vivo; conditions: 5 weeks after herbicide application
Procedure: as §1, §2, §3, §4

[4] = test system: ryegrass biotype SLR4 (without trifluralin resistance); experiment: Pre-emergence (simulated IBS) pot test, % survival of ryegrass biotype SLR4; assay type: in vivo; conditions: 5 weeks after herbicide application
Procedure: as §1, §2, §3, §4

[5] = test system: ryegrass biotype 1252.2 (with trifluralin resistance); experiment: Pre-emergence (simulated IBS) pot test, % survival of ryegrass biotype 1252.2; assay type: in vivo; conditions: 5 weeks after herbicide application
Procedure: as §1, §2, §3, §4

[6] = test system: ryegrass biotype 1216.1 (with trifluralin resistance); experiment: Pre-emergence (simulated IBS) pot test, % survival of ryegrass biotype 1216.1; assay type: in vivo; conditions: 5 weeks after herbicide application
Procedure: as §1, §2, §3, §4

[7] = test system: Correll wheat; experiment: Crop safety on wheat, pre-emergence (simulated IBS) pot test, % dry weight and % survival; assay type: in vivo, wheat (var. Correll); conditions: 5 weeks after application
Procedure: as §1
Wheat: Ten wheat seeds (var. Correll) were buried 1 cm deep. The herbicides were sprayed onto the soil surface and then the herbicide covered with another 5 mm of soil. This system of seed separation ensured crop selectivity
as §3, §4
In addition, wheat biomass was recorded by harvesting the plants and measuring dry weight to indicate crop safety. The dry weights from the treated plants were compared to the weight of untreated wheat and the percentage biomass calculated (Table 2).

[8] = test system: ryegrass biotype 1261.1 (without trifluralin resistance); experiment: Pre-emergence (simulated IBS) pot test, % survival of ryegrass biotype 1261.1; assay type: in vivo; conditions: 5 weeks after herbicide application
Procedure: as §1, §2, §3, §4

Row | SMILES | % survival of ryegrass, Mean ([1]; 250 g ai/ha) | % survival of ryegrass, Mean ([1]; 500 g ai/ha) | % survival of ryegrass, Mean ([1]; 1000 g ai/ha) | % survival of ryegrass, Mean ([2]; 250 g ai/ha) | % survival of ryegrass, Mean ([2]; 500 g ai/ha) | % survival of ryegrass, Mean ([2]; 1000 g ai/ha) | % survival of ryegrass, Mean ([3]; 250 g ai/ha) | % survival of ryegrass, Mean ([3]; 500 g ai/ha) | % survival of ryegrass, Mean ([3]; 1000 g ai/ha) | % survival of ryegrass, Mean ([4]; 250 g ai/ha) | % survival of ryegrass, Mean ([4]; 500 g ai/ha) | % survival of ryegrass, Mean ([4]; 1000 g ai/ha) | % survival of ryegrass, Mean ([5]; 250 g ai/ha) | % survival of ryegrass, Mean ([5]; 500 g ai/ha) | % survival of ryegrass, Mean ([5]; 1000 g ai/ha) | % survival of ryegrass, Mean ([6]; 250 g ai/ha) | % survival of ryegrass, Mean ([6]; 500 g ai/ha) | % survival of ryegrass, Mean ([6]; 1000 g ai/ha) | % survival of ryegrass, Mean ([8]; 250 g ai/ha) | % survival of ryegrass, Mean ([8]; 500 g ai/ha) | also measured
1 | CSC(=O)c1c(C(F)F)nc(C(F)(F)F)c(C(=O)SC)c1CC(C)C [Dithiopyr, S,S′-dimethyl 2-(difluoromethyl)-4-(2-methylpropyl)-6-(trifluoromethyl)-3,5-pyridinedicarbothioate] | 0% | 0% | 0% | 0% | 0% | 0% | 0% | 0% | 0% | 0% | 0% | 0% | 0% | 0% | 0% | 0% | 0% | 0% | 0% | 0% | Survival (%) Mean ([7]; 250 g ai/ha): 82.2%; Survival (%) Mean ([7]; 500 g ai/ha): 60.0%; Survival (%) Mean ([7]; 1000 g ai/ha): 28.9%; % survival of ryegrass, Mean ([8]; 1000 g ai/ha): 0%
2 | CCCN(CCC)c1c([N+](=O)[O-])cc(C(F)(F)F)cc1[N+](=O)[O-] [Trifluralin, 2,6-dinitro-N,N-dipropyl-4-(trifluoromethyl)benzenamine] | 33.8% | 13.1% | 26.3% | 100% | 100% | 14.1% | 97.7% | 68.2% | 27.3% | 2.9% | 0% | 0% | 29.1% | 13.9% | 3.8% | 40.4% | 19.1% | 9% | 5.6% | 0% | % survival of ryegrass, Mean ([8]; 1000 g ai/ha): 1.1%
